Experimental data: PMC8286840, “Identifying SARS-CoV-2 antiviral compounds by screening for small molecule inhibitors of Nsp3 papain-like protease” (Biochemical Journal, 2021)
Counter-ions that a name gives are not always drawn. Like-named read-outs stand apart in the source and are kept apart here.

Experiments:
[1] = target: T1, SARS-CoV-2 PLpro (nsp3 1564–1878) (Severe acute respiratory syndrome coronavirus 2, UniProt P0DTD1); experiment: biochemical; set-up: FRET-quenched peptide (Pro3) cleavage by PLpro, 10 min pre-incubation, slope over 20 min, normalised to no-compound control; conditions: low concentration screen, read-out: % of control remaining
Procedure: The plates were organized with columns 3–22 containing the compounds; the remaining columns were used for reaction controls including substrate only and substrate with enzyme but no compound (Figure 3Aii). The PLpro enzyme was pre-incubated with the compounds for 10 min, and then the reaction was initiated by the addition of substrate. […] We incubated the inhibitors with PLpro before the enzymatic reaction so that the slow-binding inhibitors will not be missed out [21]. […] Fluorescence was read on a Spark multimode microplate reader (Tecan) with an excitation wavelength at 330 nm and emission wavelength at 420 nm. […] An amount of 5 µl of the enzyme was pre-incubated with compounds for 10 min before the addition of 15 µl substrate. Fluorescence was monitored at 2 min for 20 min with 3 min intervals giving a total of seven readings.

[2] = target: T1, SARS-CoV-2 PLpro (nsp3 1564–1878); experiment: biochemical; set-up: FRET-quenched peptide (Pro3) cleavage by PLpro, 10 min pre-incubation, slope over 20 min, normalised to no-compound control; conditions: high concentration screen, read-out: % of control remaining

With `Nc1ncnc2c1ncn2[C@@H]1O[C@H](COP(=O)(O)OP(=O)(O)OP(=O)(O)OP(=O)(O)OC[C@H]2O[C@@H](n3cnc4c(N)ncnc43)[C@H](O)[C@@H]2O)[C@@H](O)[C@H]1O` [P1,P4-Di(adenosine-5')tetraphosphate triammonium] the remaining activity at 1.25 µM ([1]; Well no.=731) was 96.1% and the remaining activity at 3.75 µM ([2]; Well no.=731) was 94.1%.
In the case of `O=[N+]([O-])c1cn2c(n1)OC[C@@H](OCc1ccc(OC(F)(F)F)cc1)C2` [PA-824], the remaining activity at 1.25 µM ([1]; Well no.=4709) is reported as 104% and the remaining activity at 3.75 µM ([2]; Well no.=4709) is reported as 104%.
In the case of `C=CCc1cccc(/C=N/NC(=O)CN2CCN(Cc3ccccc3)CC2)c1O` [PAC-1], the remaining activity at 1.25 µM ([1]; Well no.=4697) is reported as 103%, the remaining activity at 1.25 µM ([1]; Well no.=6200) is reported as 107% and the remaining activity at 3.75 µM ([2]; Well no.=4697) is reported as 101%. The remaining activity at 3.75 µM ([2]; Well no.=6200) was 93.7%.
Compound `CCCCCCCCCCCCCCCC(=O)C(F)(F)F` [PACOCF3] has a remaining activity at 1.25 µM ([1]; Well no.=4390) of 102% and a remaining activity at 3.75 µM ([2]; Well no.=4390) of 100%.
Work on `CCCCCCCCCCCCCCCCOC[C@@H](COP(=O)([O-])OCC[N+](C)(C)C)OC(C)=O` [PAF C16] yielded a remaining activity at 1.25 µM ([1]; Well no.=4445) of 103% and a remaining activity at 3.75 µM ([2]; Well no.=4445) of 98.2%.
For `CCCCCCCC/C=C\CCCCCCCCOC[C@H](COP(=O)([O-])OCC[N+](C)(C)C)OC(C)=O` [PAF C18:1], the remaining activity at 1.25 µM ([1]; Well no.=4453) was 99.9% and the remaining activity at 3.75 µM ([2]; Well no.=4453) was 99.9%.
In the case of `CN(C)Cc1c(C(=O)NCCOc2ccc(C(=O)NO)cc2)oc2ccccc12` [PCI-24781], the remaining activity at 1.25 µM ([1]; Well no.=4840) is reported as 101% and the remaining activity at 3.75 µM ([2]; Well no.=4840) is reported as 100%.
`N=C(N)c1ccc2nc(-c3cc(CC(=O)N[C@@H](CC(=O)O)C(=O)O)cc(-c4cc(S(N)(=O)=O)ccc4O)c3O)[nH]c2c1` [PCI-27483] was tested, and the remaining activity at 1.25 µM ([1]; Well no.=8564) was 104% and the remaining activity at 3.75 µM ([2]; Well no.=8564) was 102%.
In the case of `C=CC(=O)N1CCC[C@@H](n2nc(-c3ccc(Oc4ccccc4)cc3)c3c(N)ncnc32)C1` [PCI-32765 (Ibrutinib)], the remaining activity at 1.25 µM ([1]; Well no.=4649) is reported as 96% and the remaining activity at 3.75 µM ([2]; Well no.=4649) is reported as 88.8%.
For `COc1ccc(Cn2ccc3ccc(C(=O)NO)cc32)cc1` [PCI-34051], the remaining activity at 1.25 µM ([1]; Well no.=4710) was 107% and the remaining activity at 3.75 µM ([2]; Well no.=4710) was 103%.
`O=C(O)c1ccccn1` [PCL 016] was tested, and the remaining activity at 1.25 µM ([1]; Well no.=7107) was 99.9% and the remaining activity at 3.75 µM ([2]; Well no.=7107) was 98.2%.
In the case of `COc1cc2ncnc(Nc3cccc(Br)c3)c2cc1OC` [PD153035 HCl], the remaining activity at 1.25 µM ([1]; Well no.=4627) is reported as 104% and the remaining activity at 3.75 µM ([2]; Well no.=4627) is reported as 105%.
`C=CC(=O)Nc1ccc2ncnc(Nc3cccc(Br)c3)c2c1` [PD168393] showed a remaining activity at 1.25 µM ([1]; Well no.=4750) of 105% and a remaining activity at 3.75 µM ([2]; Well no.=4750) of 104%.
Compound `CCN(CC)CCCCNc1ncc2cc(-c3cc(OC)cc(OC)c3)c(NC(=O)NC(C)(C)C)nc2n1` [PD173074] has a remaining activity at 1.25 µM ([1]; Well no.=4767) of 104% and a remaining activity at 3.75 µM ([2]; Well no.=4767) of 108%.
Compound `Cn1c(=O)c(-c2c(Cl)cccc2Cl)cc2cnc(Nc3ccc(N4CCOCC4)cc3)nc21` [PD173952] has a remaining activity at 1.25 µM ([1]; Well no.=5415) of 103% and a remaining activity at 3.75 µM ([2]; Well no.=5415) of 108%.
`Cn1c(=O)c(-c2c(Cl)cccc2Cl)cc2cnc(Nc3cccc(C(=O)O)c3)nc21` [PD173955-Analog1] was tested, and the remaining activity at 1.25 µM ([1]; Well no.=2849) was 101% and the remaining activity at 3.75 µM ([2]; Well no.=2849) was 99.7%.
Compound `CSc1cccc(Nc2ncc3cc(-c4c(Cl)cccc4Cl)c(=O)n(C)c3n2)c1` [PD173955] has a remaining activity at 1.25 µM ([1]; Well no.=2985) of 102% and a remaining activity at 3.75 µM ([2]; Well no.=2985) of 102%.
For `COc1cccc(-c2cc(=O)c3ccccc3o2)c1N` [PD 98,059], the remaining activity at 1.25 µM ([1]; Well no.=1457) was 94.9% and the remaining activity at 3.75 µM ([2]; Well no.=1457) was 95.8%.
In the case of `Cc1cccc(C(=O)NCN2CCN(c3ccccc3C#N)CC2)c1` [PD 168,077 maleate], the remaining activity at 1.25 µM ([1]; Well no.=1171) is reported as 106% and the remaining activity at 3.75 µM ([2]; Well no.=1171) is reported as 107%.
For `N=C1Sc2ccccc2C2=NCCCN12` [PD 404,182], the remaining activity at 1.25 µM ([1]; Well no.=1096) was 98.8% and the remaining activity at 3.75 µM ([2]; Well no.=1096) was 101%.
For `COc1cccc(-c2cc(=O)c3ccccc3o2)c1N` [PD 98059 - 2-(2-Amino-3-methoxyphenyl)-4H-1-benzopyran-4-one], the remaining activity at 1.25 µM ([1]; Well no.=2348) was 98.4% and the remaining activity at 3.75 µM ([2]; Well no.=2348) was 96.8%.
With `COc1cccc(-c2cc(=O)c3ccccc3o2)c1N` [PD 98059] the remaining activity at 1.25 µM ([1]; Well no.=2600) was 94.8% and the remaining activity at 3.75 µM ([2]; Well no.=2600) was 92%.
Work on `OC[C@H]1O[C@@H](n2cnc3c(N[C@@H]4CCc5ccccc54)ncnc32)[C@H](O)[C@@H]1O` [PD 117519] yielded a remaining activity at 1.25 µM ([1]; Well no.=7763) of 96.4%, a remaining activity at 1.25 µM ([1]; Well no.=8169) of 106% and a remaining activity at 3.75 µM ([2]; Well no.=7763) of 102%. For the same compound, the remaining activity at 3.75 µM ([2]; Well no.=8169) was 110%.
For `Cc1cc(Cn2cnc3c2C[C@@H](C(=O)O)N(C(=O)C(c2ccccc2)c2ccccc2)C3)ccc1N(C)C` [PD 123319 (ditrifluoroacetate)], the remaining activity at 1.25 µM ([1]; Well no.=7145) was 97.1%, the remaining activity at 1.25 µM ([1]; Well no.=8406) was 94.2% and the remaining activity at 3.75 µM ([2]; Well no.=7145) was 96.9%. It also gave a remaining activity at 3.75 µM ([2]; Well no.=8406) of 92.3%.
For `O=C(O)/C(S)=C/c1ccc(I)cc1` [PD 150606], the remaining activity at 1.25 µM ([1]; Well no.=5432) was 93.8% and the remaining activity at 3.75 µM ([2]; Well no.=5432) was 97.7%.
In the case of `O=C(O)/C(S)=C/c1c[nH]c2ccc(F)cc12` [PD 151746], the remaining activity at 1.25 µM ([1]; Well no.=8812) is reported as 92.8% and the remaining activity at 3.75 µM ([2]; Well no.=8812) is reported as 92.9%.
`CNc1cc2c(Nc3cccc(Br)c3)ncnc2cn1` [PD 158780] gave a remaining activity at 1.25 µM ([1]; Well no.=2499) of 99.1% and a remaining activity at 3.75 µM ([2]; Well no.=2499) of 99.3%.
Compound `CCC(=O)Nc1ccc2ncnc(Nc3cccc(Br)c3)c2c1` [PD 174265] has a remaining activity at 1.25 µM ([1]; Well no.=2501) of 101% and a remaining activity at 3.75 µM ([2]; Well no.=2501) of 98.5%.
For `Cc1cc(I)ccc1Nc1c(C(=O)NOCC2CC2)cc(F)c(F)c1F` [PD 198306 - N-(Cyclopropylmethoxy)-3,4,5-trifluoro-2-[(4-iodo-2-methylphenyl)amino]-benzamide], the remaining activity at 1.25 µM ([1]; Well no.=2582) was 92.1% and the remaining activity at 3.75 µM ([2]; Well no.=2582) was 87.7%.
`CC(=O)c1c(C)c2cnc(Nc3ccc(N4CCNCC4)cn3)nc2n(C2CCCC2)c1=O` [PD 0332991 (Palbociclib) HCl] showed a remaining activity at 1.25 µM ([1]; Well no.=4667) of 99% and a remaining activity at 3.75 µM ([2]; Well no.=4667) of 98%.
For `CC(=O)c1c(C)c2cnc(Nc3ccc(N4CCNCC4)cn3)nc2n(C2CCCC2)c1=O` [PD 0332991 (Palbociclib) Isethionate], the remaining activity at 1.25 µM ([1]; Well no.=4882) was 101% and the remaining activity at 3.75 µM ([2]; Well no.=4882) was 101%.
`C[C@@H](O)[C@H](N)c1nnc([C@H](CCC(N)=O)NC(=O)N[C@@H](CO)C(=O)O)o1` [PD-1-IN-17] gave a remaining activity at 1.25 µM ([1]; Well no.=8741) of 102% and a remaining activity at 3.75 µM ([2]; Well no.=8741) of 106%.
`COc1ccc(C2(O)OC(=O)C(c3ccc4c(c3)OCO4)=C2Cc2cc(OC)c(OC)c(OC)c2)cc1` (centres unmarked) [PD-156707] showed a remaining activity at 1.25 µM ([1]; Well no.=5693) of 101% and a remaining activity at 3.75 µM ([2]; Well no.=5693) of 104%.
`CCN(CC)CCCCNc1ncc2cc(-c3c(Cl)cccc3Cl)c(NC(=O)NC(C)(C)C)nc2n1` [PD-161570] gave a remaining activity at 1.25 µM ([1]; Well no.=5413) of 99.1% and a remaining activity at 3.75 µM ([2]; Well no.=5413) of 97.7%.
